Experimental data published in US7989466B2, “Methods to inhibit or augment an inflammatory response” (Cambridge Enterprise Limited, priority 1999, dated 2011).
No end group written: not given here.

How the values were obtained:
Assay type in all cases: cell-based
[1] = test system: MCP-1 induced human monocyte migration; experiment: Human monocyte migration, MCP-1; conditions: n.s. = no statistically significant inhibition
Experimental: (§1) Agents may also be screened in a chemotactic assay which employs human neutrophils, eosinophils, mast cells, basophils, platelets, lymphocytes or monocytes. For monocytes, 9 mls of fresh blood are transferred to a tube containing 1 ml of 3.8% sodium citrate, and left at room temperature for 15 minutes. Five mls of this anti-coagulated blood are carefully layered over 3.5 ml Polymorphprep® (Nycomed Pharma, Oslo), and centrifuged at 500 g for 35 minutes per the manufacturer's instructions. The top band at the sample/medium interface contains monocytes. The monocytes are carefully removed with a glass pipette, and reconstituted to the original volume (5 ml). The cells are washed with PBS plus 10% fetal calf serum, and centrifuged at 400 g for 10 minutes. The washing step is repeated three times before the cells are counted. Cells are resuspended at 1×10^7 cells/ml in RPMI-1640+10% fetal calf serum (FCS). The monocytes are cultured for two days at 37° C. in a humidified atmosphere of 5% CO2.
On day 2, the cells are counted, spun down, and reconstituted to 1×10^7 cells/ml in Gey's balanced salt solution+1 mg/ml bovine serum albumin (BSA). Chemotaxis is induced in a 48 or 96-well disposable chemotaxis chamber fitted with a 5-8 μm polycarbonate filter for monocytes, neutrophils or eosinophils, or a 3 μm filter for lymphocytes (Uguccioni et al, Eur. J. Immunol., 25, 64 (1995); Loetscher et al., J. Exy. Med., 184, 569 (1996); Weber et al., J. Immunol., 4166 (1995)) (PVP free, ChemoTX, Neuroprobe Inc., Cabin John, Md.). Twenty-nine μl of chemoattractant or control are added to the lower compartment of each well. The framed filter is aligned with the holes in the corner of the filter frame and placed over the wells. Two and one-half×10^5 monocytes in 25 μl of Gey's balanced salt solution+1 mg/ml BSA are added to the upper compartment. The agent is dissolved in MilliQ water and then serially diluted in the Gey's balanced salt solution. In most cases, the serially diluted agent is added to the upper compartment of the chemotaxis chamber. […]

[2] = test system: TGFβ1 induced human monocyte migration; experiment: Human monocyte migration, TGFβ1; conditions: n.s. = no statistically significant inhibition
Experimental: as §1
On day 2, the cells are counted, spun down, and reconstituted to 1×10^7 cells/ml in Gey's balanced salt solution+1 mg/ml bovine serum albumin (BSA). […]

HIV (MN) = experiment: HIV infectivity of THP-1 cells, p24gag immunofluorescence; conditions: 100 μM peptide, HIV strain MN, 72 hours
Experimental: (a) HIV (IIIb) replication in cultures of Jurkat T-cells was estimated by measuring the supernatant reverse transcriptase activity two weeks after infection. Peptide 2 and peptide 3 were at 100 μM final concentration and SDF-1α was added at 100 ng/ml final concentration 1 hour prior to exposure to virus. Values are mean±SEM from 12 wells, expressed as the percentage of the reverse transcriptase activity in the supernatant from the control wells. The experiment shown is typical of six separate experiments. (b) HIV (IIIb) infectivity of Jurkat T-cells was estimated by staining cells treated identically to those in (a) for p24^gag expression. Values are mean±S.D. percentage of cells stained for p24gag averaged from 12 fields of view from each of two separate wells. (c) HIV (MN) infectivity of THP-1 cells measured as in (b). MIP-1α was used at 100 ng/ml final concentration. (d) Immunofluorescence micrographs of THP-1 cells 48 hours after exposure to HIV (MN) in the absence (top panel) or presence (lower panel) of 100 μM peptide 3, stained for p24^gag. Several cells in the upper panel, but not the lower panel, show strong, punctuate staining for p24^gag antigen. Both fields of view contain 40-50 cells (assessed by Hoeschst 33345 staining viewed under UV illumination conditions).
Jurkat cells following HIV infection were attached to 8-well chamber slides (Becton-Dickinson) by spinning the slides using a plate rotor in a Labofuge centrifuge (Haeraeus) at 3,000×g for 5 minutes. Attached Jurkat cells or THP-1 cells were then fixed by dipping the slides into ice-cold 70% ethanol for 90 seconds. […] A threshold was then applied to each image which was the lowest threshold that detected <1% of the pixels of an image of uninfected cells stained under identical conditions. The number of objects exceeding this threshold in each field of view were counted. This process, for example, detected 9 objects in the field of view shown in the upper panel of FIG. 54D and 1 object in the field of view shown in the lower panel. […]

Row | Sequence | % inhibition at 100 μM versus MCP-1, human monocyte migration [1] [%] | % inhibition at 100 μM versus TGFβ1, human monocyte migration [2] | inhibition of HIV infectivity of THP-1 cells, p24gag staining (HIV (MN)) | inhibition of HIV infectivity of THP-1 cells, p24gag staining (HIV (MN); listed as second peptide, spanning amino acids 51 to 62 of human MCP-1) [%] | % inhibition at 100 μM versus MCP-1, human monocyte migration ([1]; listed as Peptide 2 (SEQ ID NO: 3)) [%]
1 | EICADPKQKWVQ [peptide 3(1-12)[MCP-1]] | 108 | n.s. | more than 80% | 83±7 | –
2 | SYRRITSSKCPKEAV [peptide 2(1-15)[MCP-1]] | 20 | n.s. | 28±5% | – | 23
